Data set [1] can be described thus: Optimization of sensing conditions for H2S detection (biothiols with and without 2-FBBA). As to the method: The samples containing HSA (100 μM) and each biothiol (H2S 100 μM, Cys 250 μM, Hcy 100 μM, and GSH 10 μM) with and without 2-formyl benzene boronic acid (2-FBBA) in SPB (pH 7.4, 20 mM) were incubated for 15 minutes at 25° C. KF-DNBS (25 μM, 10% DMSO) was added to the samples followed by the measurement of fluorescence spectra under excitation at 420 nm at 37° C.

The next data set concerns the target HSA (Homo sapiens, UniProt P02768). The data set can be described thus: Comparison of fluorescence change of KF and KF-DNBS with HSA. As to conditions: SPB pH 7.4, excitation 420 nm. The procedure:
Stock solutions of KF and KF-DNBS were prepared in DMSO, and a stock solution of HSA was prepared in distilled water. Blanks, each containing only KF or KF-DNBS (25 μM, 10% DMSO), and samples, each containing KF or KF-DNBS (25 μM, 10% DMSO) with HSA (100 μM) in sodium phosphate buffer (SPB, pH 7.4, 20 mM), were prepared. Fluorescence spectra were then recorded using the fluorescence spectrophotometer under excitation at 420 nm.

Data set [2] in a line: Sensing behavior of KF-DNBS with HSA as selective H2S probe (H2S titration, LOD). The procedure:
The experiment was carried out in triplicate. The limit of detection (LOD) was calculated using 3σ/slope based on the titration experiment, in which σ was the standard deviation of the blank measurements and the slope value was obtained from a plot of the fluorescence intensity versus H2S concentration.

A short description of data set [3]: Selectivity of KF-DNBS toward H2S over other biological analytes. The procedure:
Next, the selectivity of KF-DNBS with HSA toward H2S was investigated using various biologically relevant species, including biothiols (Cys, Hcy, and GSH), reactive sulfur species (RSS), and reactive oxygen species (ROS) (HSO4^−, SO4^2−, SO3^2−, S2O3^2−, SCN^−, H2O2, and ClO^−), and anions (CN^−, F^−, Br^−, NO3^−, NO2^−, HCO3^−, and CH3CO2^−).
A blank containing no analyte and a sample containing each analyte (H2S 100 μM, Cys 250 μM, Hcy 100 μM, GSH 10 μM, HSO4^− 100 μM, SO4^2− 100 μM, SO3^2− 100 μM, S2O3^2− 100 μM, SCN^− 100 μM, CN^− 100 μM, F^− 100 μM, Br^− 100 μM, NO3^− 100 μM, NO2^− 100 μM, HCO3^− 100 μM, CH3CO2^− 100 μM, H2O2 100 μM, ClO^− 100 μM) were prepared followed by the addition of HSA (100 μM) and 2-FBBA (2 mM) to SPB (pH 7.4, 20 mM). After incubation for 15 minutes at 25° C., KF-DNBS (25 μM, 10% DMSO) was added to each sample, and then fluorescence intensity at 500 nm was recorded using the fluorescence spectrophotometer under excitation at 420 nm at 37° C. The experiment was conducted in triplicate.

Where [4] appears, read: KF-DNBS 25 μM with HSA 100 μM, 2-FBBA 2 mM, SPB pH 7.4.

Where a name gives a salt, the structure may show the parent alone.

Sequence of HSA (P02768 25-609): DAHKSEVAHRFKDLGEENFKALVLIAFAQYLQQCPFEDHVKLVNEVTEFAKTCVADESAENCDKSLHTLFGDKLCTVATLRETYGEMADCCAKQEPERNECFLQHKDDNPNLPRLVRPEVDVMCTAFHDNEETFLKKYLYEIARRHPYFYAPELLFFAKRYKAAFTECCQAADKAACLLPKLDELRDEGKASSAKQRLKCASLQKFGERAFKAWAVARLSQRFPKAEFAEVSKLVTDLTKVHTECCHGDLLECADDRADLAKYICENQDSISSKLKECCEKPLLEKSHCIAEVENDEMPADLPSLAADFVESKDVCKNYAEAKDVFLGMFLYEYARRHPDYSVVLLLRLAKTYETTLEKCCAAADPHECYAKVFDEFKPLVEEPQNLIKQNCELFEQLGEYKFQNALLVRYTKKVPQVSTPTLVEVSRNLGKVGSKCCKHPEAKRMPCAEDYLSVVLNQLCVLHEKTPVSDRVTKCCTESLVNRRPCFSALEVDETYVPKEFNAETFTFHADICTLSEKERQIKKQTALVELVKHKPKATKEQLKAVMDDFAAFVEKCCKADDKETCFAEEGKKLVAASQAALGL

“2-formyl benzene boronic acid [2-FBBA, reference compound]”: the “masking of the reactivity of Cys and Hcy upon KF-DNBS” value in data set [1] (2-FBBA 2 mM, Cys 250 μM, Hcy 100 μM, HSA 100 μM) was “completely block”.
As to `CCN(CC)c1ccc(-c2cc3c(s2)c(-c2ccc(OS(=O)(=O)c4ccc([N+](=O)[O-])cc4[N+](=O)[O-])cc2)cc(=O)n3C)cc1` (as salt: benzenesulfonate) [KF-DNBS, 4-(2-(4-(diethylamino)phenyl)-4-methyl-5-oxo-4,5-dihydrothieno[3,2-b]pyridin-7-yl)phenyl 2,4-dinitrobenzenesulfonate], the melting point (in general, the temperature, or range, at which the solid turns liquid) was in the range of 96 to 98 °C.
`CCN(CC)c1ccc(-c2cc3c(s2)c(-c2ccc(OS(=O)(=O)c4ccc([N+](=O)[O-])cc4[N+](=O)[O-])cc2)cc(=O)n3C)cc1` [KF-DNBS, 4-(2-(4-(diethylamino)phenyl)-4-methyl-5-oxo-4,5-dihydrothieno[3,2-b]pyridin-7-yl)phenyl 2,4-dinitrobenzenesulfonate]: the “fluorescence in the presence or absence of HSA” value at HSA (25 μM, 10% DMSO, HSA 100 μM) is on record as “weak fluorescence”. Further, in data set [2] (setting [4]), the “H2S concentration range of linear fluorescence increase” value fell in the range of 5 to 100 µM and the “detection limit (3σ/slope) for H2S” value is 3.2 µM. Also, in data set [2] (KF-DNBS 25 μM, HSA 100 μM, 2-FBBA 2 mM, SPB pH 7.4, H2S added, 37° C.), the “time for fluorescence intensity at 500 nm to reach the maximum value” was not above 20 min. Also, the “H2S response in various buffer conditions” value in data set [2] (KF-DNBS with HSA, H2S 100 μM, pH 5 to pH 9, 20 mM) was “worked well”. For the same molecule, the “fluorescence change induced by Cys and Hcy” value in data set [1] (KF-DNBS 25 μM with HSA 100 μM, Cys 250 μM, Hcy 100 μM, without 2-FBBA) was “noticeable fluorescence change”. In addition, in data set [1] (KF-DNBS 25 μM with HSA 100 μM, H2S 100 μM, SPB pH 7.4, without 2-FBBA), the “fluorescence intensity at 500 nm on addition of H2S” value was “increased significantly”. The “selectivity to H2S over other biothiols” value in data set [1] (KF-DNBS with HSA in the presence of 2-FBBA (2 mM)) was “superior selectivity”. Also, the “fluorescence enhancement at 500 nm with various analytes” value in data set [3] (KF-DNBS 25 μM, HSA 100 μM, 2-FBBA 2 mM, SPB pH 7.4, 18 analytes) is “remarkable fluorescence enhancement was observed only for H2S”. In data set [3] (KF-DNBS with HSA and masking reagent 2-FBBA, biothiols, RSS, ROS, anions), the “selectivity toward H2S” value was “high selectivity”.
The molecule `CCN(CC)c1ccc(-c2cc3c(s2)c(-c2ccc(O)cc2)cc(=O)n3C)cc1` [KF, 2-(4-(diethylamino)phenyl)-7-(4-hydroxyphenyl)-4-methylthieno[3,2-b]pyridin-5(4H)-one] yielded a melting point of 250 to 251 °C. The “fluorescence shift by addition of HSA” value on HSA (25 μM, 10% DMSO, HSA 100 μM) is “shifted slightly from 550 to 500”. On HSA, the “HSA concentration range of linear fluorescence increase” value is 5 to 50 µM.

Values taken from patent publication US20240158693A1, “Probe for Hydrogen Sulfide Detection, Method for Manufacturing Same, and Composition for Hydrogen Sulfide Detection, Comprising Same” (Korea Institute of Ocean Science &Technology, priority 2020, published 2024).
